Assay results: ChEMBL document CHEMBL1201862, “PubChem BioAssay data set” (2004)
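Interpolation was linear, between the two tested concentrations surrounding the appropriate level; five concentrations were tested over 48 hours in 96-well plates. GI50 marks 50% less growth.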 Calls of active or inactive are those of the source. No stated cut-off is given here; in the data, active = GI50 up to about 1.1 µM and inactive = higher.

Columns and labels:
Experiment in all cases: NCI anticancer screen, dose series, 48 h
[1] = test system: CCRF-CEM
[2] = test system: HT-29
[3] = test system: MOLT-4
[4] = test system: T47D
[5] = test system: A498
[6] = test system: KM12
[7] = test system: HCT-116
[8] = test system: HL-60
[9] = test system: CAKI-1
[10] = test system: OVCAR-5
[11] = test system: UO-31
[12] = test system: 786-0
[13] = test system: NCI-H23
[14] = test system: MDA-MB-435
[15] = test system: A549
[16] = test system: OVCAR-8
[17] = test system: HOP-92
[18] = test system: NCI-H226
[19] = test system: SF-295
[20] = test system: ACHN
[21] = test system: MCF7
[22] = test system: RPMI-8226
[23] = test system: HOP-62
[24] = test system: MDA-N
[25] = test system: EKVX
[26] = test system: NCI-H522
[27] = test system: OVCAR-3
[28] = test system: MDA-MB-231
[29] = test system: SN12C
[30] = test system: TK-10
[31] = test system: SW-620
[32] = test system: DU-145
[33] = test system: OVCAR-4
[34] = test system: SNB-19
[35] = test system: SK-MEL-28
[36] = test system: U-251
[37] = test system: K562
[38] = test system: IGROV-1
[39] = test system: UACC-62
[40] = test system: SK-MEL-5
[41] = test system: HCT-15
[42] = test system: BT-549
[43] = test system: SK-MEL-2
[44] = test system: PC-3
[45] = test system: LOX IMVI
[46] = test system: UACC-257
[47] = test system: NCI/ADR-RES
[48] = test system: M14
[49] = test system: SK-OV-3
[50] = test system: HCC 2998
[51] = test system: COLO 205
[52] = test system: SR
[53] = test system: SF-539
[54] = test system: SF-268
[55] = test system: NCI-H460
[56] = test system: Malme-3M
[57] = test system: Hs-578T
[58] = test system: RXF 393
[59] = test system: SNB-75

Structure (SMILES): CC1(C)O[C@H]2[C@@H]3N=C(c4ccccc4)O[C@@H]3C=C[C@H]2O1
- GI50 [1]: > 100 µM (inactive)
- GI50 [2]: > 100 µM (inactive)
- GI50 [3]: > 100 µM (inactive)
- GI50 [4]: > 100 µM (inactive)
- GI50 [5]: > 100 µM (inactive)
- GI50 [6]: > 100 µM (inactive)
- GI50 [7]: > 100 µM (inactive)
- GI50 [8]: > 100 µM (inactive)
- GI50 [9]: > 100 µM (inactive)
- GI50 [10]: > 100 µM (inactive)
- GI50 [11]: > 100 µM (inactive)
- GI50 [12]: > 100 µM (inactive)
- GI50 [13]: > 100 µM (inactive)
- GI50 [14]: > 100 µM (inactive)
- GI50 [15]: > 100 µM (inactive)
- GI50 [16]: > 100 µM (inactive)
- GI50 [17]: 83.2 µM (inactive)
- GI50 [18]: > 100 µM (inactive)
- GI50 [19]: > 100 µM (inactive)
- GI50 [20]: > 100 µM (inactive)
- GI50 [21]: > 100 µM (inactive)
- GI50 [22]: > 100 µM (inactive)
- GI50 [23]: > 100 µM (inactive)
- GI50 [24]: > 100 µM (inactive)
- GI50 [25]: 59.7 µM (inactive)
- GI50 [26]: 4.01 µM (inactive)
- GI50 [27]: > 100 µM (inactive)
- GI50 [28]: > 100 µM (inactive)
- GI50 [29]: > 100 µM (inactive)
- GI50 [30]: > 100 µM (inactive)
- GI50 [31]: > 100 µM (inactive)
- GI50 [32]: > 100 µM (inactive)
- GI50 [33]: > 100 µM (inactive)
- GI50 [34]: > 100 µM (inactive)
- GI50 [35]: > 100 µM (inactive)
- GI50 [36]: > 100 µM (inactive)
- GI50 [37]: > 100 µM (inactive)
- GI50 [38]: > 100 µM (inactive)
- GI50 [39]: > 100 µM (inactive)
- GI50 [40]: > 100 µM (inactive)
- GI50 [41]: > 100 µM
- GI50 [42]: > 100 µM (inactive)
- GI50 [43]: > 100 µM (inactive)
- GI50 [44]: > 100 µM (inactive)
- GI50 [45]: > 100 µM (inactive)
- GI50 [46]: > 100 µM (inactive)
- GI50 [47]: > 100 µM (inactive)
- GI50 [48]: > 100 µM (inactive)
- GI50 [49]: > 100 µM (inactive)
- GI50 [50]: > 100 µM (inactive)
- GI50 [51]: > 100 µM (inactive)
- GI50 [52]: > 100 µM (inactive)
- GI50 [53]: > 100 µM (inactive)
- GI50 [54]: 17.6 µM (inactive)

Structure (SMILES): O=c1oc2ccccc2cc1-c1nnc(-c2ccccc2)s1
- GI50 [1]: 40.3 µM (inactive)
- GI50 [55]: 28.1 µM (inactive)
- GI50 [2]: 10.1 µM (inactive)
- GI50 [3]: 19.1 µM (inactive)
- GI50 [5]: 15.1 µM (inactive)
- GI50 [6]: 4.61 µM (inactive)
- GI50 [7]: 20.3 µM (inactive)
- GI50 [8]: 0.0279 µM (active)
- GI50 [9]: > 64.9 µM (inactive)
- GI50 [56]: > 100 µM (inactive)
- GI50 [10]: > 100 µM (inactive)
- GI50 [11]: 55.6 µM (inactive)
- GI50 [12]: 17.3 µM (inactive)
- GI50 [13]: > 51.2 µM (inactive)
- GI50 [57]: > 64.4 µM (inactive)
- GI50 [14]: 1.65 µM (inactive)
- GI50 [15]: 38.5 µM (inactive)
- GI50 [16]: 22.1 µM (inactive)
- GI50 [17]: > 100 µM (inactive)
- GI50 [18]: > 56 µM (inactive)
- GI50 [19]: 28.2 µM (inactive)
- GI50 [20]: 32 µM (inactive)
- GI50 [21]: 7.67 µM (inactive)
- GI50 [22]: > 55.7 µM (inactive)
- GI50 [23]: 16.1 µM (inactive)
- GI50 [24]: 2.54 µM (inactive)
- GI50 [25]: > 58.9 µM (inactive)
- GI50 [26]: 13.7 µM (inactive)
- GI50 [27]: 14.5 µM (inactive)
- GI50 [28]: 19.1 µM (inactive)
- GI50 [29]: 60.5 µM (inactive)
- GI50 [30]: > 36.6 µM (inactive)
- GI50 [31]: 12.1 µM (inactive)
- GI50 [32]: > 100 µM (inactive)
- GI50 [33]: > 68.2 µM (inactive)
- GI50 [34]: 41.6 µM (inactive)
- GI50 [35]: 98.6 µM (inactive)
- GI50 [58]: 17.1 µM (inactive)
- GI50 [36]: 12.6 µM (inactive)
- GI50 [37]: 9.89 µM (inactive)
- GI50 [38]: 22.4 µM (inactive)
- GI50 [39]: > 100 µM (inactive)
- GI50 [40]: > 71.3 µM (inactive)
- GI50 [41]: 6.73 µM
- GI50 [42]: > 68.7 µM (inactive)
- GI50 [59]: 15.5 µM (inactive)
- GI50 [43]: > 48.8 µM (inactive)
- GI50 [44]: > 76.6 µM (inactive)
- GI50 [45]: > 72.8 µM (inactive)
- GI50 [46]: > 100 µM (inactive)
- GI50 [47]: 12.1 µM (inactive)
- GI50 [48]: > 56.1 µM (inactive)
- GI50 [49]: 48.6 µM (inactive)
- GI50 [50]: 12 µM (inactive)
- GI50 [51]: > 53 µM (inactive)
- GI50 [52]: 0.971 µM (active)
- GI50 [53]: 14.5 µM (inactive)
- GI50 [54]: > 57.9 µM (inactive)
